In ChEMBL document CHEMBL3351610, “Synthesis and biological evaluation of substituted 4-(thiophen-2-ylmethyl)-2H-phthalazin-1-ones as potent PARP-1 inhibitors” (Bioorg Med Chem Lett, 2014):

Each compound was assayed against Poly [ADP-ribose] polymerase 1 (Homo sapiens, UniProt P09874) (assay: Inhibition of human PARP1).
Chain of Poly [ADP-ribose] polymerase 1 (P09874 whole entry): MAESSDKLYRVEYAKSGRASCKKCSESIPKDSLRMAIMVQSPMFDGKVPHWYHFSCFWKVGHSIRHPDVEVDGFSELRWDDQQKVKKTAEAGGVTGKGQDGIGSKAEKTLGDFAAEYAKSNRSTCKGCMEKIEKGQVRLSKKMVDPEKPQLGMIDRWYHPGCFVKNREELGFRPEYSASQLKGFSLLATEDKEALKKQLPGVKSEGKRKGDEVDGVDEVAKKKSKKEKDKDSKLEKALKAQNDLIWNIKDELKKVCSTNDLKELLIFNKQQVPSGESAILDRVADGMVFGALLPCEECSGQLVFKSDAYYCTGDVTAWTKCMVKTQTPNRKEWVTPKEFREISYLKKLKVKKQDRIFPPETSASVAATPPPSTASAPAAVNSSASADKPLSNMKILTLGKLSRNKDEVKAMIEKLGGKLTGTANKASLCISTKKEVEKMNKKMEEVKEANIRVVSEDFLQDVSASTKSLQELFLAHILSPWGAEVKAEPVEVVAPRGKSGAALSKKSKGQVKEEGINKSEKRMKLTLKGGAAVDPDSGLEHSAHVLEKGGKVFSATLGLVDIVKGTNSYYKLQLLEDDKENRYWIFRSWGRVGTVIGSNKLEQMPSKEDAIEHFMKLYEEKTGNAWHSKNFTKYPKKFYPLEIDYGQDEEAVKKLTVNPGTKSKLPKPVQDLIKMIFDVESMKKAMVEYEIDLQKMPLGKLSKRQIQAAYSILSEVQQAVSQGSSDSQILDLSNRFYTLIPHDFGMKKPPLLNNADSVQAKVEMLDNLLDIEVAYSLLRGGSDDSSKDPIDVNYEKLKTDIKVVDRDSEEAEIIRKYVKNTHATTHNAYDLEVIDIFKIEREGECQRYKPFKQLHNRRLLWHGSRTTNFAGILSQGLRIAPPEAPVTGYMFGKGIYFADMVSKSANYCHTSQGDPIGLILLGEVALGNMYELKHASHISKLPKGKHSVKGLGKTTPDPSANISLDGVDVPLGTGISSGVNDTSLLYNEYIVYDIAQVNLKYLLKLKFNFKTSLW

SMILES | IC50 [nM]
O=C(c1ccncc1)N1CCN(C(=O)c2csc(Cc3n[nH]c(=O)c4ccccc34)c2)CC1 | 108
COc1ccc(CC(=O)N2CCN(C(=O)c3csc(Cc4n[nH]c(=O)c5ccccc45)c3)CC2)cc1 | 94.9
N#Cc1ccc(C(=O)N2CCN(C(=O)c3csc(Cc4n[nH]c(=O)c5ccccc45)c3)CC2)cc1 | 85.5
CC(=O)N1CCN(C(=O)c2csc(Cc3n[nH]c(=O)c4ccccc34)c2)CC1 | 124
CCC(=O)N1CCN(C(=O)c2csc(Cc3n[nH]c(=O)c4ccccc34)c2)CC1 | 78.6
O=C(c1csc(Cc2n[nH]c(=O)c3ccccc23)c1)N1CCN(C(=O)C2CC2)CC1 | 105

Now those with a lower IC50, led by results:

IC50 [nM] | SMILES
72.3 | O=C(c1ccc(Br)cc1)N1CCN(C(=O)c2csc(Cc3n[nH]c(=O)c4ccccc34)c2)CC1
39.6 | O=C(c1csc(Cc2n[nH]c(=O)c3ccccc23)c1)N1CCN(C(=O)c2ccc3c(c2)OCO3)CC1
10.8 | O=C(c1csc(Cc2n[nH]c(=O)c3ccccc23)c1)N1CCN(C(=O)c2cccs2)CC1
46.1 | O=C(c1csc(Cc2n[nH]c(=O)c3ccccc23)c1)N1CCN(C(=O)c2ccccn2)CC1
